{
  "source": "patent US20250230193A1",
  "about": "“CYCLIC COMPOUND HAVING SELECTIVE KRAS INHIBITORY EFFECT ON HRAS AND NRAS” (CHUGAI SEIYAKU KABUSHIKI KAISHA, priority 2022, published 2025)",
  "key": {"[1]": {"biological_target": "GDP-bound NRAS wild-type protein (Homo sapiens, UniProt P01111)", "sequence (P01111 whole entry)": "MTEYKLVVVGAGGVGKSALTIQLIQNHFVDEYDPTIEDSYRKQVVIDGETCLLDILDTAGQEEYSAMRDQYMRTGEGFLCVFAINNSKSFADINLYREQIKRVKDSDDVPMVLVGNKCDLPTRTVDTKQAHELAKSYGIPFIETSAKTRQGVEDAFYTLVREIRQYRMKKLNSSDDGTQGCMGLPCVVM", "assay": "Binding to NRAS by surface plasmon resonance (SPR), Single Cycle Kinetics"}, "[2]": {"biological_target": "GDP-bound HRAS wild-type protein (Homo sapiens, UniProt P01112)", "sequence (P01112 whole entry)": "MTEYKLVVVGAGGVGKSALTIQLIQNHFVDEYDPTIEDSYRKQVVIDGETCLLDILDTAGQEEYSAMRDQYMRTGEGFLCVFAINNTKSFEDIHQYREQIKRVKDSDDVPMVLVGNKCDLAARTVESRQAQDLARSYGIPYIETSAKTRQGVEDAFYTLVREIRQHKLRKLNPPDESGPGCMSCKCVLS", "assay": "Binding to HRAS by surface plasmon resonance (SPR), Single Cycle Kinetics"}, "[3]": {"details": "KD ratio, GDP-bound NRAS wild-type vs GDP-bound KRAS wild-type, SPR"}, "[4]": {"details": "KD ratio, GDP-bound HRAS wild-type vs GDP-bound KRAS wild-type, SPR"}, "[5]": {"details": "SPR, GDP-bound wild-type proteins"}},
  "note": "*1 amine or outer side, *2 acyl side, *3 side chain or, on linkers, in order; H or OH if unused. Where a SMILES comes first, the peptide text is derived from it. Bridges are numbered along the chain shown (N, C = ends). [ ]: non-standard residue; d: D form. The star is where a group is joined. hPhe(3-Cl-4-CF3) = N[C@@H](CCc1ccc(C(F)(F)F)c(Cl)c1)C(=O)O; X18 = C=CCCN([C@@H](Cc1ccc(C(F)(F)F)cc1)C(=O)[*:2])[*:1]; NPrPhe(4-CF3) = CCCN[C@@H](Cc1ccc(C(F)(F)F)cc1)C(=O)O; NMeGly(cPent) = CN[C@H](C(=O)O)C1CCCC1; Pro(4,4-F2) = O=C(O)[C@@H]1CC(F)(F)CN1; NMeD = CN[C@@H](CC(=O)O)C(=O)O; NMeL = CN[C@@H](CC(C)C)C(=O)O; Morpholide = C1CN(*)CCO1; Ac5c = NC1(C(=O)O)CCCC1; Ac4c = NC1(C(=O)O)CCC1; Sar = CNCC(=O)O",
  "data": [
    {"smiles": "C=CCCN1C(=O)CN(C)C(=O)CN(C)C(=O)[C@H]([C@@H](C)CC)NC(=O)[C@H](CC(C)C)N(C)C(=O)C[C@@H](C(=O)N2CCOCC2)N(C)C(=O)[C@H](C2CCCC2)N(C)C(=O)C2(CCCC2)NC(=O)[C@@H]2CCCN2C(=O)[C@H](CCc2ccc(C(F)(F)F)c(Cl)c2)NC(=O)CN(C)C(=O)[C@@H]1Cc1ccc(C(F)(F)F)cc1", "note": "[PP0129] ([NMeL]I[Sar][Sar][X18][Sar][hPhe(3-Cl-4-CF3)]P[Ac5c][NMeGly(cPent)][NMeD]-Morpholide; lactam N-11)", "values": [
      {"measurement": "NRAS/KRAS (ratio of KD for GDP-bound NRAS wild-type to KD for KRAS)", "setting": "[1]; SPR", "result": "B (a compound having 3 or more and less than 10 is denoted as B)"},
      {"measurement": "HRAS/KRAS (ratio of KD for GDP-bound HRAS wild-type to KD for KRAS)", "setting": "[2]; SPR", "result": "C (A compound having a KD ratio of 0.1 or more and less than 3 is denoted as C)"}
    ]},
    {"smiles": "CCO[C@@H]1C[C@H]2C(=O)NC3(CCC3)C(=O)N(C)[C@@H](C(CC)CC)C(=O)N(C)[C@H](C(=O)N3CCOCC3)CC(=O)N(C)[C@@H](CC(C)C)C(=O)N[C@@H]([C@@H](C)CC)C(=O)N(C)CC(=O)N(C)[C@H]3CCCCCN(C3=O)[C@@H](Cc3ccc(C(F)(F)F)cc3)C(=O)N(C)CC(=O)N[C@@H](CCc3cc(F)c(C(F)(F)F)c(F)c3)C(=O)N2C1", "note": "[PP0820]", "values": [
      {"measurement": "NRAS/KRAS (ratio of KD value with respect to NRAS to KD value with respect to KRAS)", "setting": "[1]; [3]", "result": "A (a compound having 10 or more and less than 20 is denoted as A)"},
      {"measurement": "HRAS/KRAS (ratio of KD value with respect to HRAS to KD value with respect to KRAS)", "setting": "[2]; [4]", "result": "B (a compound having 3 or more and less than 10 is denoted as B)"}
    ]},
    {"smiles": "CCO[C@@H]1C[C@H]2C(=O)NC3(CCC3)C(=O)N(C)[C@@H](C3CCCC3)C(=O)N(C)[C@H](C(=O)N(C)C)CC(=O)N(C)[C@@H](CC)C(=O)N[C@@H]([C@@H](C)CC)C(=O)N(C)CC(=O)N(C)[C@H]3C[C@H]4C[C@H]4CN(C3=O)[C@@H](Cc3ccc(C(F)(F)F)cc3)C(=O)N(C)CC(=O)N[C@@H](CCc3cc(F)c(C(F)(F)F)c(F)c3)C(=O)N2C1", "note": "[PP0830]", "values": [
      {"measurement": "NRAS/KRAS (ratio of KD value with respect to NRAS to KD value with respect to KRAS)", "setting": "[1]; [3]", "result": "C (A compound having a KD ratio of 0.1 or more and less than 3 is denoted as C)"},
      {"measurement": "HRAS/KRAS (ratio of KD value with respect to HRAS to KD value with respect to KRAS)", "setting": "[2]; [4]", "result": "C (A compound having a KD ratio of 0.1 or more and less than 3 is denoted as C)"}
    ]},
    {"smiles": "CCCN1C(=O)CN(C)C(=O)CN(C)C(=O)[C@H]([C@@H](C)CC)NC(=O)[C@H](CC(C)C)N(C)C(=O)C[C@@H](C(=O)N(C)C)NC(=O)[C@H](C2CCCC2)N(C)C(=O)C2(CCC2)NC(=O)[C@@H]2CC(F)(F)CN2C(=O)[C@H](CCc2ccc(C(F)(F)F)c(Cl)c2)NC(=O)CN(C)C(=O)[C@@H]1Cc1ccc(C(F)(F)F)cc1", "note": "[PP0358] ([NMeL]I[Sar][Sar][NPrPhe(4-CF3)][Sar][hPhe(3-Cl-4-CF3)][Pro(4,4-F2)][Ac4c][NMeGly(cPent)]D-NMe2; lactam N-11)", "values": [
      {"measurement": "NRAS/KRAS (ratio of KD for GDP-bound NRAS wild-type to KD for KRAS)", "setting": "[1]; SPR", "result": "B (a compound having 3 or more and less than 10 is denoted as B)"},
      {"measurement": "HRAS/KRAS (ratio of KD for GDP-bound HRAS wild-type to KD for KRAS)", "setting": "[2]; SPR", "result": "C (A compound having a KD ratio of 0.1 or more and less than 3 is denoted as C)"}
    ]},
    {"smiles": "CC[C@H](C)[C@@H]1NC(=O)[C@@H]2CCCCc3ccc(cc3)C[C@@H](C(=O)N(C)CC(=O)N[C@@H](CCc3ccc(C(F)(F)F)c(OC)c3)C(=O)N3C[C@H](OC(C)C)C[C@H]3C(=O)NC3(CC(C)(C)C3)C(=O)N(C)[C@@H](C3CCCC3)C(=O)N(C)[C@H](C(=O)N(C)CC)CC(=O)N2C)N2CC/C=C\\C[C@@H](C2=O)N(C)C(=O)CN(C)C1=O", "note": "[PP3078]", "values": [
      {"measurement": "NRAS/KRAS (ratio of KD value with respect to GDP-bound NRAS wild-type protein to KD value with respect to KRAS)", "setting": "[1]; [5]", "result": "A (a compound having 10 or more and less than 20 is denoted as A)"},
      {"measurement": "HRAS/KRAS (ratio of KD value with respect to GDP-bound HRAS wild-type protein to KD value with respect to KRAS)", "setting": "[2]; [5]", "result": "B (a compound having 3 or more and less than 10 is denoted as B)"}
    ]},
    {"smiles": "CCC[C@H]1C(=O)N[C@@H]([C@@H](C)CC)C(=O)N2CCC[C@H]2C(=O)N(C)[C@H]2C/C=C\\CCN(C2=O)[C@@H](Cc2ccc(C(F)F)cc2)C(=O)N(C)CC(=O)N[C@@H](CCc2ccc(Cl)c(Cl)c2)C(=O)N2C[C@H](OC3CCC3)C[C@H]2C(=O)NC2(CC(C)(C)C2)C(=O)N(C)[C@@H](C(CC)CC)C(=O)N(C)[C@H](C(=O)N(C)C)CC(=O)N1C", "note": "[PP2646]", "values": [
      {"measurement": "NRAS/KRAS (ratio of KD value with respect to GDP-bound NRAS wild-type protein to KD value with respect to KRAS)", "setting": "[1]; class symbols", "result": "AA (a compound having 20 or more is denoted as AA)"},
      {"measurement": "HRAS/KRAS (ratio of KD value with respect to GDP-bound HRAS wild-type protein to KD value with respect to KRAS)", "setting": "[2]; class symbols", "result": "A (a compound having 10 or more and less than 20 is denoted as A)"}
    ]},
    {"smiles": "CCCN(C)C(=O)[C@@H]1CC(=O)N(C)[C@@H](CC2CC2)C(=O)N[C@@H]([C@@H](C)CC)C(=O)N(C)CC(=O)N(C)[C@H]2C/C=C\\CCN(C2=O)[C@@H](Cc2ccc(C(F)(F)F)cc2)C(=O)N(C)CC(=O)N[C@@H](CCc2cc(F)c(C(F)(F)F)c(F)c2)C(=O)N2C[C@H](F)C[C@H]2C(=O)NC2(CC(C)(C)C2)C(=O)N(C)[C@@H](C2CCCC2)C(=O)N1C", "note": "[PP1665]", "values": [
      {"measurement": "NRAS/KRAS (ratio of KD value for NRAS to KD value for KRAS)", "setting": "[1]; [3]", "result": "AA (a compound having 20 or more is denoted as AA)"},
      {"measurement": "HRAS/KRAS (ratio of KD value for HRAS to KD value for KRAS)", "setting": "[2]; [4]", "result": "A (a compound having 10 or more and less than 20 is denoted as A)"}
    ]}
  ]
}
